From ChEMBL document CHEMBL6153135, “Rational Design of a Potent, Selective, and Metabolically Stable CDK9 Inhibitor to Counteract Osimertinib Resistance through Mcl-1 Suppression and Enhanced BRD4 Co-Targeting” (J Med Chem, 2025)
The source made the active and inactive calls. The rule behind the calls is not given here.

Key:
[1] = molecular target: CDK9/cyclin T1 (Homo sapiens, UniProt P50750); assay: Inhibition of CDK9/cyclin T1 (unknown origin) preincubated for 10 mins followed by substrate/ATP measured after 60 mins by ADP-Glo assay; type: protein-complex assay
[2] = system: Osimertinib-resistant NCI-H1975 cell; assay: Induction of apoptosis in human Osimertinib-resistant NCI-H1975 cells assessed as early apoptotic cells at 2 uM incubated for 16 hrs by Annexin V-FITC/PI staining based flow cytometry (reference value: 8.02 %); type: functional
[3] = system: NCI-H1975; assay: Antitumor activity against human NCI-H1975 cells xenografted in BALB-c nude mouse assessed as reduction in Ki-67 expression at 15 mg/kg, iv administered on every two days by IHC analysis; type: functional, organism-based
[4] = Anti-proliferative activity against human Osimertinib-resistant HCC827 cells assessed as cell inhibition measured after 72 hrs in presence of 100 nM JQ1 by MTT assay; type: functional, cell-based
[5] = system: NCI-H1975; assay: Antitumor activity against human NCI-H1975 cells xenografted in BALB-c nude mouse assessed as tumor growth inhibition at 5 mg/kg, iv; type: functional, organism-based
[6] = Drug concentration in tumor of BALB-c nude mouse xenografted with human NCI-H1975 cells at 15 mg/kg, iv measured after 30 mins by LC-MS/MS analysis; type: ADME, organism-based, Neoplasm; conditions: read-out: Ct
[7] = molecular target: Glycogen synthase kinase-3 alpha (Homo sapiens) (UniProt P49840); assay: Inhibition of GSK3-alpha (unknown origin) at 100 nM preincubated for 10 mins followed by substrate/ATP measured after 60 mins by ADP-Glo assay relative to control; conditions: time 70.0 min
[8] = system: Osimertinib-resistant NCI-H1975 cell; assay: Induction of apoptosis in human Osimertinib-resistant NCI-H1975 cells assessed as early apoptotic cells at 0.5 uM incubated for 16 hrs by Annexin V-FITC/PI staining based flow cytometry (reference value: 8.02 %); type: functional
[9] = system: Lung adenocarcinoma organoid; assay: Anti-tumor activity against patient (#2223)-derived human Lung adenocarcinoma organoid assessed as inhibition of cell viability measured after 96 hrs; type: functional, tissue-based; conditions: Neoplasm
[10] = AUC (0 to infinity) in Sprague-Dawley rat at 20 mg/kg, po; type: ADME, organism-based; conditions: in vivo
[11] = molecular target: CDK7/Cyclin H/MNAT1 (Homo sapiens) (UniProt P51946+P50613+P51948); assay: Inhibition of CDK7/Cyclin H/MAT1 (unknown origin) at 100 nM preincubated for 10 mins followed by substrate/ATP measured after 60 mins by ADP-Glo assay relative to control; type: protein-complex assay; conditions: time 70.0 min
[12] = molecular target: CDK9/cyclin T1 (Homo sapiens) (UniProt O60563+P50750); assay: Inhibition of CDK9/cyclin T1 (unknown origin) at 100 nM preincubated for 10 mins followed by substrate/ATP measured after 60 mins by ADP-Glo assay relative to control; type: protein-complex assay; conditions: time 70.0 min
[13] = Metabolic stability in human liver microsomes assessed as clearance measured for 5 to 60 mins by LC-MS/MS analysis; type: ADME, Microsome; conditions: time 5-60 min, read-out: CLH
[14] = Half life in Sprague-Dawley rat at 2 mg/kg, iv; type: ADME, organism-based; conditions: in vivo
[15] = system: HCC827; assay: Anti-proliferative activity against human HCC827 cells assessed as cell inhibition measured after 72 hrs in presence of 500 nM JQ1 by MTT assay; type: functional, cell-based; conditions: HCC827, 72 h
[16] = molecular target: Cyclin-dependent kinase 4/cyclin D1 (Homo sapiens) (UniProt P11802+P24385); assay: Inhibition of CDK4/Cyclin D1 (unknown origin) at 100 nM preincubated for 10 mins followed by substrate/ATP measured after 60 mins by ADP-Glo assay relative to control; type: protein-complex assay; conditions: time 70.0 min
[17] = system: Osimertinib-resistant NCI-H1975 cell; assay: Induction of apoptosis in human Osimertinib-resistant NCI-H1975 cells assessed as late apoptotic cells at 0.5 uM incubated for 16 hrs by Annexin V-FITC/PI staining based flow cytometry (reference value: 1.42 %); type: functional
[18] = molecular target: Glycogen synthase kinase-3 beta (Homo sapiens) (UniProt P49841); assay: Inhibition of GSK3beta (unknown origin) at 100 nM preincubated for 10 mins followed by substrate/ATP measured after 60 mins by ADP-Glo assay relative to control; conditions: time 70.0 min
[19] = molecular target: Cyclin-dependent kinase 9 (Homo sapiens) (UniProt P50750); assay: Inhibition of CDK9 in human Osimertinib-resistant NCI-H1975 cells assessed as decrease in p-RNAPII-ser2 level incubated for 12 hrs by Western blot analysis; type: cell-based; conditions: Osimertinib-resistant NCI-H1975 cell, dose 50-500 nM
[20] = Toxicity in BALB-c mouse xenografted with human NCI-H1975 cells assessed as decrease in body weight at 5 mg/kg, iv; type: organism-based; conditions: in vivo
[21] = molecular target: CDK2/Cyclin A2 (Homo sapiens, UniProt P24941); assay: Inhibition of CDK2/Cyclin A2 (unknown origin) preincubated for 10 mins followed by substrate/ATP measured after 60 mins by ADP-Glo assay; type: protein-complex assay
[22] = Clearance in Sprague-Dawley rat at 2 mg/kg, iv; type: ADME, organism-based; conditions: in vivo
[23] = system: HCC827; assay: Anti-proliferative activity against human HCC827 cells assessed as cell inhibition measured after 72 hrs in presence of 250 nM JQ1 by MTT assay; type: functional, cell-based; conditions: HCC827, 72 h
[24] = AUC (0 to infinity) in BALB/c mouse at 15 mg/kg, po; type: ADME, organism-based; conditions: in vivo
[25] = system: NCI-H1975; assay: Anti-proliferative activity against human NCI-H1975 cells assessed as cell inhibition measured after 72 hrs in presence of 500 nM JQ1 by MTT assay; type: functional, cell-based; conditions: NCI-H1975, 72 h
[26] = system: Osimertinib-resistant HCC827 cell; assay: Inhibition of Hippo signaling in human Osimertinib-resistant HCC827 cells in presence of JQ1 by KEGG analysis; type: cell-based
[27] = system: Lung adenocarcinoma organoid; assay: Anti-tumor activity against patient (#2514)-derived human Lung adenocarcinoma organoid assessed as inhibition of cell viability measured after 96 hrs relative to control; type: functional, Neoplasm
[28] = Metabolic stability in dog liver microsomes assessed as half life measured for 5 to 60 mins by LC-MS/MS analysis; type: ADME, Canis lupus familiaris, Microsome; conditions: time 5-60 min
[29] = system: Lung adenocarcinoma organoid; assay: Anti-tumor activity against patient (#2223)-derived human Lung adenocarcinoma organoid assessed as inhibition of cell viability measured after 96 hrs relative to control; type: functional, Neoplasm
[30] = system: Osimertinib-resistant NCI-H1975 cell; assay: Anti-proliferative activity against human Osimertinib-resistant NCI-H1975 cells assessed as cell inhibition measured after 72 hrs in presence of 100 nM JQ1 by MTT assay; type: functional, cell-based
[31] = system: Osimertinib-resistant HCC827 cell; assay: Downregulation of c-Myc level in human Osimertinib-resistant HCC827 cells in presence of JQ1 by RNA-Seq analysis; type: functional, cell-based
[32] = system: HCC827; assay: Anti-proliferative activity against human HCC827 cells assessed as cell inhibition measured after 72 hrs in presence of 100 nM JQ1 by MTT assay; type: functional, cell-based; conditions: HCC827, 72 h
[33] = Toxicity in BALB-c nude mouse xenografted with human NCI-H1975 cells assessed as pathological damage in lung at 15 mg/kg, iv administered on every two days by H and E staining based analysis; type: organism-based; conditions: in vivo
[34] = AUC (0 to t) in Sprague-Dawley rat at 2 mg/kg, iv; type: ADME, organism-based; conditions: in vivo
[35] = system: Osimertinib-resistant HCC827 cell; assay: Inhibition of cell cycle regulation in human Osimertinib-resistant HCC827 cells by KEGG analysis; type: functional, cell-based
[36] = system: Osimertinib-resistant HCC827 cell; assay: Antitumor activity against human Osimertinib-resistant HCC827 cells xenografted in BALB-c nude mouse assessed as tumor growth inhibition at 5 mg/kg, iv; type: functional, organism-based

Glycogen synthase kinase-3 alpha (Homo sapiens), sequence (P49840 2-483 limits assumed): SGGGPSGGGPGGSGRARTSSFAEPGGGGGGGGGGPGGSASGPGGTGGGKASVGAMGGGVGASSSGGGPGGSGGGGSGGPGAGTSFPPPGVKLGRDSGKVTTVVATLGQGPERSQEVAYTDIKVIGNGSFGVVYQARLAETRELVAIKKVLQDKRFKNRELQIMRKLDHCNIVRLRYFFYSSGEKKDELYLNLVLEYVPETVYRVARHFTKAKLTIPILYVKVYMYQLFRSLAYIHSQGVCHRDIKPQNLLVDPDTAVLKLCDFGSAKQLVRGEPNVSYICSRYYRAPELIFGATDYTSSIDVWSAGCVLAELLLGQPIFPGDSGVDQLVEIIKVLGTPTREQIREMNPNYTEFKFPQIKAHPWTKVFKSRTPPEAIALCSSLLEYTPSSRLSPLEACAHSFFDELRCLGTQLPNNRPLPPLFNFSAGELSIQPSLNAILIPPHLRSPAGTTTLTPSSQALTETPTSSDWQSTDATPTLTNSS
Glycogen synthase kinase-3 beta (Homo sapiens), sequence (P49841 whole entry, looked up): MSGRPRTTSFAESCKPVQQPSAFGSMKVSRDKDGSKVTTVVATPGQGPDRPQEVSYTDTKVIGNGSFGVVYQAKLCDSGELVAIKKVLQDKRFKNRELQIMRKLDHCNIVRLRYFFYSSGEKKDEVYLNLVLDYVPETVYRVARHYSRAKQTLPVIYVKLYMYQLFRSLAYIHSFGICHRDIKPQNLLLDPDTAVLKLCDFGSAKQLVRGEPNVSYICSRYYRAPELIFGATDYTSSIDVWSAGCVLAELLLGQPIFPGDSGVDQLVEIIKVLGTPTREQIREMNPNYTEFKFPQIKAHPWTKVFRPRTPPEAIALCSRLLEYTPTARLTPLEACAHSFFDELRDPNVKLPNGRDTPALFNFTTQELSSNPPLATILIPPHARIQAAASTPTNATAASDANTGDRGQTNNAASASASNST
Cyclin-dependent kinase 9 (Homo sapiens), sequence (P50750 whole entry): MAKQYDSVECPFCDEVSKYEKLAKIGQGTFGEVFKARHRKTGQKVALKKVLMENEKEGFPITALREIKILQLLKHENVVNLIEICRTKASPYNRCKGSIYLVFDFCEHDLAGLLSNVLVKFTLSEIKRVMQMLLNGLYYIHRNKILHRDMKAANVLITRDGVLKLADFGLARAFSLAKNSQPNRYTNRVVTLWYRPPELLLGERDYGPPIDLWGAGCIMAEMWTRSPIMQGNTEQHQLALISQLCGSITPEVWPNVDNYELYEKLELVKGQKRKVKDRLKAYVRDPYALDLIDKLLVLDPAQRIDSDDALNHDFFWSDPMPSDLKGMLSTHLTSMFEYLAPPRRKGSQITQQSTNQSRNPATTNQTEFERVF
CDK9/cyclin T1, sequence (O60563 whole entry): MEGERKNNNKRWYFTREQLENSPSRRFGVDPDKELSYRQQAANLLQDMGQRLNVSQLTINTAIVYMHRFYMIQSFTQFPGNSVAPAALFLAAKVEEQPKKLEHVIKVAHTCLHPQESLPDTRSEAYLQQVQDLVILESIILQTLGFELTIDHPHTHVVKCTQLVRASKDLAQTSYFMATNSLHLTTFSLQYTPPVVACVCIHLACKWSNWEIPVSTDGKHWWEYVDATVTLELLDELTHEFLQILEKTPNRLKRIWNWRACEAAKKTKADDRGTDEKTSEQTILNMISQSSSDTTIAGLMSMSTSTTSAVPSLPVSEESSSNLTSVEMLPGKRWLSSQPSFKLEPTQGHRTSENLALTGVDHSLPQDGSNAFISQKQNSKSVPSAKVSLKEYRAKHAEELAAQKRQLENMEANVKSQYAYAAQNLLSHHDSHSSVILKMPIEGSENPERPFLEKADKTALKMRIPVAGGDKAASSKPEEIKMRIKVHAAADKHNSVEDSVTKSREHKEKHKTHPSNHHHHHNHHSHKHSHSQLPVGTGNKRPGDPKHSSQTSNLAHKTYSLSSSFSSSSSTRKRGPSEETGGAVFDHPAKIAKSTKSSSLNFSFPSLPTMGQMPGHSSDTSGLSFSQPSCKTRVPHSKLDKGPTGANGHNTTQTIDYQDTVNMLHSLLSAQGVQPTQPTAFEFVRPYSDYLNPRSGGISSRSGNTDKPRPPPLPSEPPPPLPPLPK
CDK9/cyclin T1, sequence (P50750 whole entry): as the sequence (P50750 whole entry) above

IC50 [1]: 1.2 nM
concentration at 0.5 h [6]: 864 ng/mL
inhibition [7]: 97.5%
IC50 [9]: < 50 nM
AUC(0-inf) [10]: 5960 ng·h/mL
inhibition [11]: 11.9%
inhibition [12]: 97.3%
microsomal CLint [13]: 10.8 µL/min/mg
half-life [14]: 1.57 h
IC50 [15]: 9.7 nM
inhibition [16]: 25.7%
inhibition [18]: 94.1%
inhibition [19]: Dose-dependent-effect
IC50 [21]: 126 nM
clearance [22]: 13.3 mL/min/kg
IC50 [23]: 19.3 nM
AUC(0-inf) [24]: 766 ng·h/mL
IC50 [25]: 4.7 nM
half-life [28]: 1.25 h
IC50 [30]: 26.8 nM
IC50 [32]: 30.6 nM
AUC(0-t) [34]: 2530 ng·h/mL
Structure (SMILES): CC(=O)N1CCC(NC(=O)c2ccc3cc2OCCCCCCOc2cc(ccc2F)-c2nc(ncc2F)N3)CC1
Activity [2]: 26%
Activity [3]: Active
IC50 [4]: 31.6 nM
inhibition [5]: inactive
Activity [8]: 25.4%
Activity [17]: 10%
Activity [20]: Non-toxic
inhibition [26]: Active
Imax [27]: 99.9%
Imax [29]: 99.9%
Activity [31]: Active
Activity [33]: Non-toxic
inhibition [35]: Active
inhibition [36]: inactive
